According to patent publication US20030050306A1, “Novel heteroaryl derivatives, their preparation and use” (H. Lundbeck A/S, priority 1999, published 2003):

Key:
[1] = target: T1, human cloned dopamine D4.2 receptors (Homo sapiens, UniProt P21917, DEL265-296); test: Inhibition of the binding of 3H-YM-09151-2 to human dopamine D4 receptors; conditions: human cloned dopamine D4.2 receptors in CHO-cells
T1 construct: expressed in transfected cells; host or cells: CHO cells
T1 sequence (P21917 with tags, fused parts or gaps DEL265-296): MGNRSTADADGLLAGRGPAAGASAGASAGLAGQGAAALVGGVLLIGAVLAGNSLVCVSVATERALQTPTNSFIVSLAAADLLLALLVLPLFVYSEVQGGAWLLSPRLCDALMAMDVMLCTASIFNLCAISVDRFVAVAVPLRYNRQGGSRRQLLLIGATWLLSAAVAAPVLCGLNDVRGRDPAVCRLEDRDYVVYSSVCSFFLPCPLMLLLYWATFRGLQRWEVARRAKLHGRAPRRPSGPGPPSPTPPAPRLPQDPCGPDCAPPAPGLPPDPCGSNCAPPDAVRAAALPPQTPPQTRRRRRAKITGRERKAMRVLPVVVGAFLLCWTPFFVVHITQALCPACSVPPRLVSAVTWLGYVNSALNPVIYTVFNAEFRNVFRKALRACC
Description: The compounds of the invention have also been tested for their affinity to dopamine D4 receptors in the following test.
Inhibition of the Binding of ^3H-YM-09151-2 to Human Dopamine D4 Receptors
By this method the inhibition by drugs of the binding of [^3H]YM-09151-2 (0.06 nM) to membranes of human cloned dopamine D4.2 receptors expressed in CHO-cells is determined in vitro. Method modified from NEN Life Science Products, Inc., technical data certificate PC2533-10/96.

[2] = target: T2, cloned human 5-HT1A receptors (Homo sapiens, UniProt P08908); test: Inhibition of 3H-5-CT binding to human 5-HT1A receptors; conditions: cloned human 5-HT1A receptors in HeLa cells (HA7)
T2 construct: expressed in transfected cells; host or cells: HeLa cells (HA7)
T2 sequence (P08908 1-422): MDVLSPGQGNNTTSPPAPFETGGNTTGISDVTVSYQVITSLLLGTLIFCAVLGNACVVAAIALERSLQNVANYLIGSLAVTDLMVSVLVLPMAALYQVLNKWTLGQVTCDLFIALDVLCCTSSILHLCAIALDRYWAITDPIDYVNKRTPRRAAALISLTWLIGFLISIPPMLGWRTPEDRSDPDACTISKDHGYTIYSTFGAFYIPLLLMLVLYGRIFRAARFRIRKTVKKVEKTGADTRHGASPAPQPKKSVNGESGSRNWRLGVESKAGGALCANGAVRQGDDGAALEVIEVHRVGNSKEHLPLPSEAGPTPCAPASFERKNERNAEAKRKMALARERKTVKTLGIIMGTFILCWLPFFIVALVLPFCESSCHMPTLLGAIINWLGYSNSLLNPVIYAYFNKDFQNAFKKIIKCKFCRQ
Description: The affinity of the compounds of the invention to 5-HT1A receptors was determined by measuring the inhibition of binding of a radioactive ligand at 5-HT1A receptors as described in the following test:
Inhibition of ^3H-5-CT Binding to Human 5-HT1A Receptors
By this method the inhibition by drugs of the binding of the 5-HT1A agonist ^3H-5-carboxamido tryptamine (3H-5-CT) to cloned human 5-HT1A receptors stably expressed in transfected HeLa cells (HA7) (Fargin, A. et al, J. Biol. Chem., 1989, 264, 14848) is determined in vitro. The assay was performed as a modification of the method described by Harrington, M. A. et at, J. Pharmacol. Exp. Ther., 1994, 268, 1098. Human 5-HT1A receptors (40 μg of cell homogenate) were incubated for 15 minutes at 37° C. in 50 mM Tris buffer at pH 7.7 in the presence of ^3H-5-CT. Non-specific binding was determined by including 10 μM of metergoline. The reaction was terminated by rapid filtration through Unifilter GF/B filters on a Tomtec Cell Harvester. Filters were counted in a Packard Top Counter.

Compound	IC50 [1]	IC50 [2]
1-[2-(Bromo-trifluoromethyl-phenylsulfanyl)-ethyl]-4-(2,3-dihydro-benzo[1,4]dioxin-5-yl)-piperazine [Compound 3c]	35 nM	11 nM
1-[3-(Bromo-trifluoromethyl-phenylsulfanyl)-propyl]-4-(2,3-dihydro-benzo[1,4]dioxin-5-yl)-piperazine [Compound 5ap]	6.3 nM	6.2 nM
Clc1ccccc1OCCCN1CCN(c2cccc3c2OCCO3)CC1 [Compound 1a, 1-[3-(2-Chloro-phenoxy)-propyl]-4-(2,3-dihydro-benzo[1,4]dioxin-5-yl)-piperazine]	1.1 nM	10 nM
Fc1cc(F)c(OCCCN2CCN(c3cccc4c3OCCO4)CC2)c(F)c1 [Compound 1c, 1-(2,3-Dihydro-benzo[1,4]dioxin-5-yl)-4-[3-(2,4,6-trifluoro-phenoxy)-propyl]-piperazine]	13 nM	2 nM
COc1cc(F)ccc1OCCCN1CCN(c2cccc3c2OCCO3)CC1 [Compound 1d, 1-(2,3-Dihydro-benzo[1,4]dioxin-5-yl)-4-[3-(4-fluoro-2-methoxy-phenoxy)-propyl]-piperazine]	3 nM	5.3 nM
Cc1cc(F)ccc1OCCCN1CCN(c2cccc3c2OCCO3)CC1 [Compound 1e, 1-(2,3-Dihydro-benzo[1,4]dioxin-5-yl)-4-[3-(4-fluoro-2-methyl-phenoxy)-propyl]-piperazine]	1.3 nM	4.5 nM
Clc1ccc(OCCCN2CCN(c3cccc4c3OCCO4)CC2)cc1 [Compound 2a, 1-[3-(4-Chloro-phenoxy)-propyl]-4-(2,3-dihydro-benzo[1,4]dioxin-5-yl)-piperazine]	4 nM	4.4 nM
Clc1ccc(SCCN2CCN(c3cccc4c3OCCO4)CC2)cc1Cl [Compound 3a, 1-[2-(3,4-Dichloro-phenylsulfanyl)-ethyl]-4-(2,3-dihydro-benzof[, 4]dioxin-5-yl)-piperazine]	5.4 nM	76 nM
Clc1cccc(Cl)c1SCCN1CCN(c2cccc3c2OCCO3)CC1 [Compound 3d, 1-[2-(2,6-Dichloro-phenylsulfanyl)-ethyl]-4-(2,3-dihydro-benzo[1,4]dioxin-5-yl)-piperazine]	11 nM	31 nM
Clc1cccc(Cl)c1SCCCCN1CCN(c2cccc3c2OCCO3)CC1 [Compound 5ab, 1-[4-(2,6-Dichloro-phenylsulfanyl)-butyl]-4-(2,3-dihydro-benzo[1,4]dioxin-5-yl)-piperazine]	2.1 nM	1.9 nM
Fc1ccc(SCCCN2CCN(c3cccc4c3OCCO4)CC2)c(Cl)c1 [Compound 5ac, 1-[3-(2-Chloro-4-fluoro-phenylsulfanyl)-propyl]-4-(2,3-dihydro-benzo[1,4]dioxin-5-yl)-piperazine]	1.4 nM	2.4 nM
COc1c(Cl)cccc1SCCCCN1CCN(c2cccc3c2OCCO3)CC1 [Compound 5ag, 1-[4-(3-Chloro-2-methoxy-phenylsulfanyl)-butyl]-4-(2,3-dihydro-henzo[1,4]dioxin-5-yl)-piperazine]	3.1 nM	7.4 nM
Fc1ccc(SCCCN2CCN(c3cccc4ccsc34)CC2)c(Cl)c1 [Compound 5ai, 1-Benzo[b]thiophen-7-yl-4-[3-(2-chloro-4-fluoro-phenylsulfanyl)-propyl]-piperazine]	2.9 nM	–
Fc1cc(Br)c(OCCCN2CCN(c3cccc4c3OCCO4)CC2)c(Br)c1 [Compound 5aj, 1-[3-(2,6-Dibromo-4-fluoro-phenoxy)-propyl]-4-(2,3-dihydro-benzo[1,4]dioxin-5-yl)-piperazine]	13 nM	3.4 nM
Fc1cc(Cl)c(OCCCN2CCN(c3cccc4ccsc34)CC2)c(Cl)c1 [Compound 5au, 1-Benzo[b]thiophen-7-yl-4-[3-(2,6-dichloro-4-fluoro-phenoxy)-propyl]-piperazine]	7.6 nM	6.4 nM
Cc1cccc(Cl)c1SCCCCN1CCN(c2cccc3c2OCCO3)CC1 [Compound 5av, 1-[4-(2-Chloro-6-methyl-phenylsulfanyl)-butyl]-4-(2,3-dihydro-benzo[1,4]dioxin-5-yl)-piperazine]	1.4 nM	5.1 nM
Clc1cccc(Cl)c1SCCCN1CCN(c2cccc3c2OCCO3)CC1 [Compound 5aw, 1-[3-(2,6-Dichloro-phenylsulfanyl)-propyl]-4-(2,3-dihydro-benzo[1,4]dioxin-5-yl)-piperazine]	1.9 nM	1.7 nM

Further compounds by falling IC50 [1], results first:

IC50 [1]	IC50 [2]	Compound
68 nM	3.8 nM	CS(=O)(=O)c1cc(Cl)c(OCCCN2CCN(c3cccc4ccsc34)CC2)c(Cl)c1 [Compound 5ao, 1-Benzo[b]thiophen-7-yl-4-[3-(2,6-dichloro-4-methanesulfonyl-phenoxy)-propyl]-piperazine]
12 nM	15 nM	FC(F)(F)c1ccc(OCCCN2CCN(c3cccc4c3OCCO4)CC2)cc1 [Compound 2b, 1-(2,3-Dihydro-benzo[1,4]dioxin-5-yl)-4-[3-(4-trifluoromethyl-phenoxy)-propyl]-piperazine]
6.6 nM	–	Fc1ccc(SCCCN2CCN(c3cccc4ccsc34)CC2)c(Cl)c1 [Compound 5ad, 1-Benzo[b]thiophen-7-yl-4-[3-(2-chloro-4-fluoro-phenylsulfanyl)-propyl]-piperazine]
5.9 nM	1.1 nM	Clc1cccc(Cl)c1OCCCN1CCN(c2cccc3c2OCCO3)CC1 [Compound 1b, 1-[3-(2,6-Dichloro-phenoxy)-propyl]-4-(2,3-dihydro-benzo[1,4]dioxin-5-yl)-piperazine]
5.4 nM	–	Fc1ccc(SCCCN2CCN(c3cccc4ccsc34)CC2)c(Cl)c1 [Compound 2e, 1-Benzo[b]thiophen-7-yl-4-[3-(2-chloro-4-fluoro-phenylsulfanyl)-propyl]-piperazine]
4.3 nM	97 nM	Fc1ccc(SCCN2CCN(c3cccc4c3OCCO4)CC2)cc1 [Compound 3b, 1-(2,3-Dihydro-benzo[1,4]dioxin-5-yl)-4-[2-(4-fluoro-phenylsulfanyl)-ethyl]-piperazine]
3.4 nM	2.2 nM	Fc1cc(Cl)c(OCCCN2CCN(c3cccc4c3OCCO4)CC2)c(Cl)c1 [Compound 5at, 1-[3-(2,6-Dichloro-4-fluoro-phenoxy)-propyl]-4-(2,3-dihydro-benzo[1,4]dioxin-5-yl)-piperazine]
1.7 nM	15 nM	N#Cc1ccccc1OCCCN1CCN(c2cccc3c2OCCO3)CC1 [Compound 2d, 2-{3-[4-(2,3-Dihydro-benzo[1,4]dioxin-5-yl)-piperazin-1-yl]-propoxy}-benzonitrile]
1.3 nM	2.8 nM	c1ccc(SCCCN2CCN(c3cccc4c3OCCO4)CC2)cc1 [Compound 4a, 1-(2,3-Dihydro-benzo[1,4]dioxin-5-yl)-4-(3-phenylsulfanyl-propyl)-piperazine]
1.2 nM	4 nM	Fc1ccccc1OCCCN1CCN(c2cccc3c2OCCO3)CC1 [Compound 2c, 1-(2,3-Dihydro-benzo[1,4]dioxin-5-yl)-4-[3-(2-fluoro-phenoxy)-propyl]-piperazine]
0.53 nM	4.9 nM	Fc1ccc(OCCCN2CCN(c3cccc4c3OCCO4)CC2)c(Br)c1 [Compound 5aa, 1-[3-(2-Bromo-4-fluoro-phenoxy)-propyl]-4-(2,3-dihydro-benzo[1,4]dioxin-5-yl)-piperazine]
